Drawing on PubChem BioAssay (NCI), this text covers TGI for three compounds.

What all share (experiment): inhibition of tumour cell growth, NCI panel, 48 h
For experiment [1], the system named is T-47D breast.
The subject of experiment [2] is HCC-2998 colon.
Experiment [3] has as its system UACC-257 melanoma.
Experiment [4] deals with HT29 colon.
Experiment [5] concerns CCRF-CEM leukemia.
In experiment [6] the test system is A498 renal.
The subject of experiment [7] is SR leukemia.
The subject of experiment [8] is LOX IMVI melanoma.
Experiment [9] relates to IGROV1 ovarian.
Experiment [10] has as its system SK-MEL-28 melanoma.
Experiment [11] relates to MDA-MB-231 breast.
Experiment [12] relates to HL-60(TB) leukemia.
In experiment [13] the test system is OVCAR-4 ovarian.
Experiment [14] relates to CAKI-1 renal.
Experiment [15] has as its system BT-549 breast.
Experiment [16] relates to SW-620 colon.
In experiment [17] the test system is RPMI-8226 leukemia.
Experiment [18] concerns U251 CNS.

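Tested at 5 concentrations; 48 h exposure; 96-well plates; endpoints linearly interpolated, else capped at highest concentration. Definition used: TGI = concentration required for complete inhibition of growth.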 Bounds are passed on as bounds.

As for `O=C1NC(SSC2=NNC3(C(=O)N2)c2ccccc2-c2ccccc23)=NNC12c1ccccc1-c1ccccc12`, the TGI in experiment [1], in [2], in experiment [3], in experiment [4], in experiment [5] and in [6] was more than 10 µM each time. Moreover, the TGI in experiment [7], in experiment [8], in experiment [9], in experiment [10], in [11] and in [12] was more than 10 µM throughout. For the same compound, the TGI in [13], in experiment [14], in experiment [15], in [16], in experiment [17] and in [18] was more than 10 µM in each case.

For the compound `COC(=O)NCCc1[nH]nc2c1C(=O)C=C(N1CCOCC1)C2=O`, the TGI in [1], in experiment [2], in experiment [3], in experiment [4], in [5] and in experiment [6] was more than 100 µM throughout. In addition, the TGI in [7], in experiment [8], in experiment [9], in experiment [10], in experiment [11] and in experiment [12] was more than 100 µM each time. In addition, the TGI in experiment [13], in experiment [14], in experiment [15], in [16], in experiment [17] and in experiment [18] was more than 100 µM throughout.

`Nn1c(COc2cccc(OCc3n[nH]c(=S)n3N)c2)n[nH]c1=S`: the TGI in experiment [1], in [2], in experiment [3], in [4], in experiment [5] and in experiment [6] was more than 100 µM each time. Besides, the TGI in [7] is 34.6 µM; in experiment [8] it was more than 100 µM; in experiment [9], more than 100 µM; in [10], more than 100 µM; in experiment [11], more than 100 µM; in [12] it was more than 100 µM. In addition, the TGI in experiment [13], in experiment [14], in experiment [15], in [16], in [17] and in experiment [18] was more than 100 µM throughout.
